Where a SMILES comes first, the peptide text is derived from it. Bridges are numbered along the chain shown (N, C = ends). [ ]: non-standard residue; d: D form. d(aThr) = C[C@@H](O)[C@@H](N)C(=O)O; Dhb = C/C=C(\N)C(=O)O
Target: TRPV1 (Homo sapiens, UniProt Q8NER1)
Assay: TRPV1 assays, inhibition of capsaicin response (cell line not stated for the IC50 values)

Sequence of TRPV1 (Q8NER1 whole entry): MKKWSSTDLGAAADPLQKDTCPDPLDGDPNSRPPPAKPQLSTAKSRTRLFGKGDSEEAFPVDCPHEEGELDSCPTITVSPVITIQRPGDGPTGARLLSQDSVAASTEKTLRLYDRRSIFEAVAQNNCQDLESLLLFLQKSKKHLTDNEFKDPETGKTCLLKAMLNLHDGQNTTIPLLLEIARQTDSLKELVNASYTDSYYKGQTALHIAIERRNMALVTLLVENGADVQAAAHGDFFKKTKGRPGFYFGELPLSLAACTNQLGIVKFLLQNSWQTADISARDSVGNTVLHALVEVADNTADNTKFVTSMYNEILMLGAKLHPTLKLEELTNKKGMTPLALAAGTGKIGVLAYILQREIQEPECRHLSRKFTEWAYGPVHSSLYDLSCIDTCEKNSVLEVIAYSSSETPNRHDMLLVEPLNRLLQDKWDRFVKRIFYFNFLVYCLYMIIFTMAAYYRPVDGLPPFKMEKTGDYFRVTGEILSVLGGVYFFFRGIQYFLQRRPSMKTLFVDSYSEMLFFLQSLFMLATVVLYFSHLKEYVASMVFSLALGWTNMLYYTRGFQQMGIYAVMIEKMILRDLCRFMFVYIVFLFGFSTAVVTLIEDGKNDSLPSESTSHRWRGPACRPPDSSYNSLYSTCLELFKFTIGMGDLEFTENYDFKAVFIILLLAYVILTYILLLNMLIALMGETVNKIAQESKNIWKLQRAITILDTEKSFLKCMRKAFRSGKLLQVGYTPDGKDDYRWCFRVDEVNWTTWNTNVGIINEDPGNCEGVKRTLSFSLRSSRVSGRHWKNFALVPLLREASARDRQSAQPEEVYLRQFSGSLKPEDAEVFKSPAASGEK

Compound	inhibitory activity on TRPV1 (in words)
Nobilamide E [compound 8]	inactive
C/C=C1\NC(=O)[C@H](C)NC(=O)[C@H](C(C)C)NC(=O)[C@H](NC(=O)[C@H](Cc2ccccc2)NC(=O)[C@@H](CC(C)C)NC(=O)[C@@H](Cc2ccccc2)NC(C)=O)[C@@H](C)OC1=O [compound 1, A-3302-B] (Ac-[dF][dL]F[d(aThr)]VA[Dhb]; ester 4-C)	substantial inhibitory activity
